{
  "source": "patent US20240287135A1",
  "about": "“ANTIMICROBIAL PEPTIDE OR PEPTIDE DERIVATIVE, SUBSTITUTE, AND COMPOSITION THEREOF, AND PREPARATION METHOD AND APPLICATION OF COMPOSITION” (QC BIO-TECHNOLOGY (SHENZHEN) CO., LTD., priority 2021, published 2024)",
  "key": {"E. coli": {"tested_on": "E. coli", "test": "E. coli inhibition test (colony count on agarose plate)", "format": "cell-based, Escherichia coli", "details": "for number of E. coli clones on plate: AMP 200 μg/mL mixed 1:1 with bacterial solution, 15 min room temperature, cultivated 37 °C 12 h, control 251 clones", "protocol": "The 39 AMPs synthesized in Examples 1 to 39 each were subjected to an E. coli inhibition test. 30 μL of an E. coli bacterial solution was taken and mixed with 30 μL of each of the AMPs (concentration: 200 μg/mL), and 30 μL of a PBS isotonic solution was adopted to prepare a control; a reaction was allowed at room temperature for 15 min, and a resulting bacterial solution was evenly coated on an agarose plate and cultivated at 37 °C for 12 h; and the number of E. coli bacteria on each plate was counted and recorded.\nIn order to make the experimental results clearer, 6 experimental samples were taken for control analysis."}, "Human RBCs": {"tested_on": "Human RBCs", "format": "cell-based", "details": "20 μL of 1 μg/mL AMP, 2% RBCs, 10 min", "protocol": "Human RBCs were taken. 20 μL of a solution of 1 μg/mL AMP of SEQ ID NO: 27 was mixed with 2% RBCs to allow a reaction for 10 min, and a resulting mixture was centrifuged at 1,000 rpm for 3 min."}, "[1]": {"tested_on": "Jurkat cell line (leukemia lymphocytes)", "test": "Killing of the AMP for leukemia lymphocytes", "format": "cell-based", "details": "20 μL of 1 μg/mL AMP, 10^5 cells, 10 min", "protocol": "Jurkat cell line (leukemia lymphocytes) was taken. 20 μL of a solution of 1 μg/mL AMP of SEQ ID NO: 10 was mixed with 10^5 cells to allow a reaction for 10 min, and a resulting mixture was centrifuged at 1,000 rpm for 3 min."}, "[2]": {"tested_on": "HypG2 cell line (liver cancer cells)", "test": "Killing of the AMP for liver cancer cells", "format": "cell-based", "details": "20 μL of 1 μg/mL AMP, 10^5 cells, 10 min", "protocol": "HypG2 cell line (liver cancer cells) was taken. 20 μL of a solution of 1 μg/mL AMP of SEQ ID NO: 15 was mixed with 10^5 cells to allow a reaction for 10 min, and a resulting mixture was centrifuged at 1,000 rpm for 3 min."}, "oral bacteria": {"tested_on": "oral bacteria", "test": "Inhibition on oral bacteria (mouthwash from the elderly, sheep blood agar)", "format": "cell-based", "details": "30 min, anaerobic 37 °C 4 d", "protocol": "Mouthwash was taken from the elderly and divided into 4 parts of equal amounts, and the 4 parts each were mixed with a solution of 2 mg/mL SEQ ID NO: 8 at different amounts for 30 min and then evenly coated on plates with sheep blood agar, where A: PBS (control), B: 2 μL, C: 10 μL, and D: 20 μL; and resulting mixtures each were anaerobically cultivated at 37 °C for 4 d, and the number of colonies on each plate was observed."}, "K562 cells": {"tested_on": "K562 cells", "test": "Killing of the AMP for tumor cells (FCM PI kit)", "format": "cell-based", "details": "10 ng, 20 ng and 40 ng of AMP", "protocol": "K562 cells were cultivated, a same amount of K562 cells was taken and mixed with 10 ng, 20 ng, and 40 ng of the AMP of SEQ ID NO: 8 to allow a reaction, and apoptotic cells were determined by a flow cytometry (FCM) PI kit."}, "RNA viruses": {"tested_on": "RNA viruses", "test": "Killing of the AMP for RNA viruses (RT-PCR after infection of 293T)", "format": "cell-based", "details": "supernatant mixed with equal amount of 200 μg/mL AMP for 15 min; 293T infected 12 h; control 1.7×10^7", "protocol": "The plasmids pNL4.3Δ, pVSV-G, p-enhancer, and lipo2000 each were used to transfect 293T, then the cells were cultivated at 37° ° C. for two days, a culture supernatant was taken and centrifuged to remove organelle impurities, and 500 μL of a cell supernatant was mixed with an equal amount of 200 μg/mL SEQ ID NO: 8 to allow a reaction for 15 min. In a control group, PBS was used instead of SEQ ID NO: 8. The filter centrifugation (Millipore Amicon Ultra-15) was used to remove the AMP, thereby eliminating a killing effect of the AMP itself on cells. A sample to be tested was used to infect the 293Tcell line, and then the cell line was cultivated at 37° C. for 12 h. The 293T cell line was recovered, and the RT-PCR method was used to determine the infection difference between live viruses for the cells. The control group and the experimental group had the same experimental environment, but the amino acid sequence of SEQ ID NO: 8 of the present application was added in the experimental group."}, "[3]": {"tested_on": "K562 cell line (leukemia cells)", "test": "Killing of the AMP for leukemia cells", "format": "cell-based", "details": "20 μL of 1 μg/mL AMP, 10^5 cells, 10 min", "protocol": "K562 cell line (leukemia cells) was taken. 20 μL of a solution of 1 μg/mL AMP of SEQ ID NO: 17 was mixed with 10^5 cells to allow a reaction for 10 min, and a resulting mixture was centrifuged at 1,000 rpm for 3 min."}},
  "note": "Ends that are not written are not given here.",
  "data": [
    {"sequence": "HAMPNMLRIMASAVLVKR (antimicrobial peptide, fully synthetic) [SEQ ID NO: 7]", "values": [
      {"measurement": "number of E. coli clones on plate", "setting": "E. coli", "result": 216, "unit": "E. coli clones"}
    ]},
    {"sequence": "HKAVGNMLKIASAVLVHK (antimicrobial peptide, fully synthetic) [SEQ ID NO: 6]", "values": [
      {"measurement": "number of E. coli clones on plate", "setting": "E. coli", "result": 226, "unit": "E. coli clones"}
    ]},
    {"sequence": "KAVPNMLKIMASLVLARH [SEQ ID NO: 27, KAVPNMLKIMASLVLARH]", "values": [
      {"measurement": "clumping of RBCs", "setting": "Human RBCs", "result": "human RBCs clump"},
      {"measurement": "hemolysis", "setting": "Human RBCs", "result": "no obvious hemolysis"}
    ]},
    {"sequence": "HKAVPNMLHIASAVLVRH (antimicrobial peptide, fully synthetic) [SEQ ID NO: 5]", "values": [
      {"measurement": "number of E. coli clones on plate", "setting": "E. coli", "result": 236, "unit": "E. coli clones"}
    ]},
    {"sequence": "HKRAMPSIVKMIATLVLARKH (antimicrobial peptide, fully synthetic) [SEQ ID NO: 10]", "values": [
      {"measurement": "effect on leukemia lymphocytes (image)", "setting": "[1]", "result": "leukemia lymphocytes clump, and some are broken"}
    ]},
    {"sequence": "RAMPNMLRIMASLVLARKH [SEQ ID NO: 15]", "values": [
      {"measurement": "effect on liver cancer cells (image)", "setting": "[2]", "result": "Liver cancer cells clump, and are broken and deformed"}
    ]},
    {"sequence": "HAMGNMLKIMASAVLVRH [SEQ ID NO: 8, HAMGNMLKIMASAVLVRH]", "values": [
      {"measurement": "growth of oral bacteria on plate", "setting": "oral bacteria; B: 2 μL of 2 mg/mL solution", "result": "a small number of bacteria grew"},
      {"measurement": "growth of oral bacteria on plate", "setting": "oral bacteria; C: 10 μL of 2 mg/mL solution", "result": "no oral bacteria grew"},
      {"measurement": "growth of oral bacteria on plate", "setting": "oral bacteria; D: 20 μL of 2 mg/mL solution", "result": "no oral bacteria grew"},
      {"measurement": "number of E. coli clones on plate", "setting": "E. coli", "result": 1, "unit": "E. coli clones"},
      {"measurement": "inhibitory effect on E. coli", "setting": "E. coli; AMP 200 μg/mL, 15 min, plate count (FIG. 1)", "result": "most significant inhibitory effect"},
      {"measurement": "cell death (apoptotic cells, FCM PI)", "setting": "K562 cells", "result": "cell death was proportional to the content of the AMP"},
      {"measurement": "active viral copy", "setting": "RNA viruses", "result": "5×10^5"}
    ]},
    {"sequence": "RHAMGQMLRIMASLVLARK [SEQ ID NO: 17]", "values": [
      {"measurement": "effect on leukemia cells (image)", "setting": "[3]", "result": "leukemia cells clump"}
    ]}
  ]
}
